According to patent US7888355B2, “Compositions and methods for inhibiting growth and metastasis of melanoma” (Burnham Institute for Medical Research, priority 2007, dated 2011):
Where two headings read alike, the source gives them in different places.

Legend:
[1] = tested on: human diploid fibroblasts (IMR90); assay: Toxicity on human diploid fibroblasts; format: cell-based
Procedure: Characterization of CSL and AIGA effects on mouse melanoma cells. The structures of AIGA and CSL are depicted in FIGS. 1a and 1b. AIGA was tested for cytotoxicity at concentrations ranging between 0.1 and 2 μM, whereas CSL was used at a concentration of 0.01 to 0.3 μM. SW1 cells or normal melanocytes were seeded on 96 well plates and 24 h late, cells were treated with the indicated concentrations of ATF2 50-100 peptide, AIGA, or CSL for 20 h. ATF2 50-100 peptide (cloned in mammalian expression vector in frame with penetratin was transfected with the aid of lipofectamine) was used as a positive control. ATP levels were used as an indicator of cell viability and were measured using the ATPLITE ATP detection assay kit. The number of surviving cells upon AIGA treatment was normalized to the number of surviving cells under the control treatment, and the normalized number was designated as the “% Viability.” Results shown in FIGS. 1c-1f represent 3 experiments. Treatment of SW1 melanoma cells with 1 μM of AIGA reduced the viability of melanoma cells to 10%, (FIG. 1c). Treatment of the SW1 cells with 0.05 μM of CSL reduced the viability of melanoma cells to 50%, and 0.1 μM reduced it to 10% (FIG. 1d). […] Normal melanocytes and fibroblasts were used as a control.

WM115 cells = assay: WM115 melanoma cell viability; format: cell-based, human; details: WM115 cells
Procedure: (§1) Cell lines. Mouse melanoma (SW1) and human melanoma (LU1205) cells were maintained in DMEM supplemented with 10% FBS, L-glutamine and antibiotics. The human melanoma cell lines MEWO and WM115 were maintained in RPMI supplemented with 10% FBS and antibiotics. Primary mouse melanocytes were cultured in F-12 media supplemented with 10% FBS, antibiotics, IBMX (isobuthyl-methylxantine), bovine pituitary extract, and TPA.
(§2) Mitochondrial activity and apoptosis. Cells were exposed to the chemicals for 12-48 hours as indicated in Results. To measure changes in mitochondrial activity reflective of general cell viability, the ATPLITE ATP detection assay was used according to the manufacturer's recommendations (Perkin Elmer). Apoptosis analysis was performed by flow cytometry of PI-stained cells. The percentage of cells to the left of the diploid G0/1 peak, characteristic of hypodiploid cells that have partially lost DNA, was calculated as percentage of apoptotic cells (Bhoumik et al., PNAS 101:4222-7, 2004). Analysis of changes in Caspase 8 expression pattern was performed using immunoblot analysis.
The effects of CSL and AIGA on the human melanoma cell lines WM115 and MEWO were assessed. AIGA reduced the viability of the human melanoma cultures when added at a concentration of 0.5-2 μM (FIG. 5a and FIG. 5c) whereas CSL reduced their viability at a concentration of 0.1 μM-2 μM in WM115 cells (FIG. 5b) and 0.05 μM-2 μM in MeWO cells (FIG. 5d).

MeWO cells = assay: MeWO melanoma cell viability; format: cell-based, human
Procedure: as §1, §2
The effects of CSL and AIGA on the human melanoma cell lines WM115 and MEWO were assessed. […]

SW1 mouse melanoma = assay: SW1 metastatic lesions in syngeneic C3H mice; format: in vivo; details: SW1 cells s.c. in C3H mice
Procedure: (§3) Tumor growth and metastasis in vivo. GFP-expressing SW1 cells were trypsinized, resuspended in PBS, and injected subcutaneously (1×10^6) into the lower flank of 6 to 7-week-old mice. When tumors reached a size of about 50 mm^3, the indicated compounds (100 μL of the vehicle—10% DMSO, 70% Cremophor/ethanol (3:1), and 20% PBS and 1.0 mg/kg of celastrol or 0.5 mg/kg of the derivatives CA16, CA19) were injected i.p. every alternate day. Body weight and tumor growth were monitored every 2 days. GFP-expressing SW1 tumors were monitored in vivo on shaved mice with a light box illuminated by blue light fiber optics (Lightools Research; Encinitas, Calif.), and imaging was carried out with a digital camera (Nikon D100). Tumors were measured for up to 3 weeks. For metastases studies, LU1205 cells (1×10^6) were injected i.v. into the lateral tail vein of nude mice. At the end of the experiment, the lungs and tumors were excised and weighed. To detect metastatic lesions, lungs were fixed in formalin, embedded in paraffin and subjected to hematoxylin and eosin staining.
To further assess the impact of these compounds on the development of metastatic lesions, the SW1 mouse melanoma model using the syngeneic C3H strain was employed. Subcutaneous injection of SW1 cells results in tumor formation at the site of injection followed by metastasis to different sites within 6-8 weeks.

[2] = tested on: Human melanoma LU1205 cells; assay: LU1205 lung metastasis in nude mice; format: in vivo, mouse; details: compound every second day, analysis 60 days after injection
Procedure: as §3
The effect of CSL and CSL derivatives, CA16 and CA19, on the metastatic capacity of melanoma cells was then determined. Human melanoma LU1205 cells were injected into the tail vein of nude mice, followed by administration of the compounds every second day. This approach allows monitoring of changes in the number of lesions formed on the lungs, a primary organ for tumor cell growth under this experimental approach. Analysis performed 60 days following injection determined changes in the number and size of metastatic lesions in each of the experimental groups.

Mdm2 and p53 = assay: Stability of short-lived proteins; format: cell-based; details: 0.3-1 μM, data not shown
Excerpt: CSL was also shown to inhibit NF-κB activation through the inhibition of IKB kinase and TAK1 activities. […] Thus, it is likely that the ability of CSL to attenuate NF-κB activity would result in increased JNK activity, which is consistent the findings herein. It is the increase in JNK activity, and consequently of its substrate c-Jun, in concert with inhibition of ATF2 activities that brings about the potent cytotoxic effects of both CSL and AIGA on melanoma cells, similar to what was previously shown for the ATF2 peptides.

[3] = Tolerability of administration to mice; format: in vivo, mouse; details: daily administration, doses up to 1 mg/kg
Procedure: (§4) To assess the ability of CSL and CSL derivatives to affect the tumorigenicity and metastasis of melanoma, the mouse SW1 cell lines were used in syngeneic models. Injection of SW1 melanoma cells subcutaneously into C3H mice was followed by daily injections of CSL intraperitoneally (IP). […] Briefly, SW1 cells that stably express GFP were injected s.c into C3H mice. When the tumor reached the size of 50 mm^3, the vehicle, CSL (1 mg/kg), CA16 (0.5 mg/kg) or CA19 (0.5 mg/kg) were administered i.p, every second day for a period of 24 days. Tumor size was measured at the indicated times. Data presented in FIG. 6b represents two experiments.

SW1 tumors = assay: SW1 tumor growth in syngeneic C3H mice; format: in vivo, mouse; details: 1 mg/kg i.p. every second day for 24 days
Procedure: as §3, §4

Row | Compound | toxic effect on human diploid fibroblasts (IMR90) [1] | concentration at which viability was reduced (WM115 cells) [µM] | concentration at which viability was reduced (MeWO cells) [µM] | metastatic lesions (SW1 mouse melanoma) | growth of large, medium and small sized lesions in the lungs [2] | stability of short-lived proteins, including Mdm2 and p53 (Mdm2 and p53) | toxic effect on human diploid fibroblasts (IMR90) ([1]; data not shown) | toxicity or discomfort in mice [3] | reduction of tumor growth (SW1 tumors) [fold]
1 | CC(=O)Oc1c2c(c(CC=C(C)C)c3c1C(=O)C1=C[C@@H]4CC5C(C)(C)OC(C/C=C(\C)C(=O)O)(C4=O)[C@@]15O3)OC(C)(CCC=C(C)C)C=C2 (stereo partly drawn) [AIGA, Acetyl isogambogic acid] | Neither CSL nor AIGA elicited toxic effect | 0.5 to 2 | 0.5 to 2 |  |  |  |  |  | 
2 | CC1=C(O)C(=O)C=C2C1=CC=C1[C@@]2(C)CC[C@@]2(C)[C@@H]3C[C@](C)(C(=O)O)CC[C@]3(C)CC[C@]12C [Celastrol] |  |  |  | potently exhibit the ability to inhibit large as well as small metastatic lesions, with the exception of the 1-2 mm range | efficient in inhibiting growth of large medium and small sized lesions in the lungs | did not affect | Neither CSL nor AIGA elicited toxic effect | did not result in toxicity or any noticeable discomfort | 5
